Assay results: patent US8420681B2, “Dioxo-imidazolidine derivatives, which inhibit the enzyme SOAT-1, and pharmaceutical and cosmetic compositions containing them” (Galderma Research & Development, priority 2009, dated 2013)

Target: T1, enzyme ACAT-1 (Homo sapiens, UniProt P35610)
T1 construct: endogenous in cells; host or cells: HepG2
T1 sequence (P35610 1-550): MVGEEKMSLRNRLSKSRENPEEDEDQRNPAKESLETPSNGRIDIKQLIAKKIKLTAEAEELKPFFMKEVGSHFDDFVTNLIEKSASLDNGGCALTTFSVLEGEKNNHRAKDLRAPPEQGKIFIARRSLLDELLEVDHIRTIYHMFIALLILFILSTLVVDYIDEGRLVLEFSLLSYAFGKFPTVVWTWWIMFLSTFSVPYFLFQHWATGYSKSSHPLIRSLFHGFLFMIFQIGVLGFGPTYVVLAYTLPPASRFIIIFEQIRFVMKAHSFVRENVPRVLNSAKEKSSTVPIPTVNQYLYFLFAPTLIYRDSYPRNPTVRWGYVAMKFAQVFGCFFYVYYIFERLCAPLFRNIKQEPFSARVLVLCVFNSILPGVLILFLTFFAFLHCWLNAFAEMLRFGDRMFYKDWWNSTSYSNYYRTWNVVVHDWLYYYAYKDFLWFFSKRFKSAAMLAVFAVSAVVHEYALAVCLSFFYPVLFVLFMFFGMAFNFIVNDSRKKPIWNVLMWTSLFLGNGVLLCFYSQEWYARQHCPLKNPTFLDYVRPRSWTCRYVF
Assay: HepG2 NBD-cholesterol fluorescence test of inhibitory activity towards ACAT-1 (SOAT-1)
Format: cell-based
Conditions: HepG2 cells, NBD-cholesterol 1 μg/ml, incubation 6 hours at 37° C., fluorescence read (490/540 nm)
Description: The compounds (I) according to the invention, and also the pharmaceutically acceptable salts, solvates and/or hydrates thereof, have inhibitory properties on the enzyme SOAT-1. This inhibitory activity on the enzyme SOAT-1 is measured according to a HepG2 primary enzymatic test, as described in Example 23.
The compounds of formula (I) according to the invention were subjected to a test for evaluating their inhibitory activity towards the enzyme ACAT-1, inspired by the following publication: “Identification of ACAT1- and ACAT2-specific inhibitors using a novel, cell based fluorescence assay: individual ACAT uniqueness”, J. Lipid. Res. (2004) vol. 45, pages 378-386.
The principle of this test is based on the use of NBD-cholesterol, a cholesterol analogue whose fluorescence depends on its environment. When this molecule is in a polar environment, it is weakly fluorescent, whereas in a non-polar environment, it is strongly fluorescent. Free NBD-cholesterol becomes inserted in cell membranes and is weakly fluorescent in this polar environment. When NBD-cholesterol is esterified with ACAT, the NBD-cholesterol ester enters non-polar lipid droplets and is then strongly fluorescent.
The method below is applied: HepG2 cells are incubated in the presence of NBD-cholesterol (1 μg/ml) and of the test compound of formula (I) in black 96-well transparent-bottomed plates, at a rate of 30 000 cells per well. After incubation for 6 hours at 37° C. under 5% CO2, the medium is removed by turning upside-down and the cells are washed with twice 100 μl of PBS. After addition of 50 μl of lysis buffer (10 mM NaPO4, 1% Igepal), the plates are shaken for 5 minutes and the fluorescence is read (excitation at 490 nm, emission at 540 nm) on a Fusion machine (Perkin-Elmer).

| Compound | IC50 |
| --- | --- |
| CCCC(NC(=O)CN1C(=O)N(c2ccc(C)cc2)C2(CCCCC2)C1=O)c1ccccc1C (stereo not shown) [Compound 8, 2-(2,4-dioxo-1-p-tolyl-1,3-diaza-spiro[4.5]dec-3-yl)-N-(1-o-tolyl-butyl)acetamide] | 31 nM |
| Cc1ccc(N2C(=O)N(CC(=O)NC(c3ccccc3C)C(C)C)C(=O)C23CCCCC3)cc1 (stereo not shown) [Compound 9, 2-(2,4-dioxo-1-p-tolyl-1,3-diaza-spiro[4.5]dec-3-yl)-N-(2-methyl-1-o-tolylpropyl)-acetamide] | 100 nM |
| Cc1ccc(N2C(=O)N(CC(=O)NC(c3ccccc3)C(C)C)C(=O)C23CCCCC3)cc1 (stereo not shown) [Compound 19, 2-(2,4-dioxo-1-p-tolyl-1,3-diaza-spiro[4.5]dec-3-yl)-N-(2-methyl-1-phenylpropyl)-acetamide] | 23 nM |

Other lines, results leading:

| IC50 | Compound |
| --- | --- |
| 50 nM | CCC(NC(=O)CN1C(=O)N(c2ccc(C)cc2)C2(CCCCC2)C1=O)c1ccccc1 (stereo not shown) [Compound 4, 2-(2,4-dioxo-1-p-tolyl-1,3-diaza-spiro[4.5]dec-3-yl)-N-(1-phenyl-propyl)acetamide] |
| 36 nM | CC[C@H](NC(=O)CN1C(=O)N(c2ccc(C)cc2)C2(CCCCC2)C1=O)c1ccccc1 [Compound 6, 2-(2,4-dioxo-1-p-tolyl-1,3-diaza-spiro[4.5]dec-3-yl)-N-((S)-1-phenylpropyl)-acetamide] |
| 60 nM | CCC(NC(=O)CN1C(=O)N(c2ccc(C)cc2)C2(CCCCC2)C1=O)c1ccc(C)cc1 (stereo not shown) [Compound 13, 2-(2,4-dioxo-1-p-tolyl-1,3-diaza-spiro[4.5]dec-3-yl)-N-(1-p-tolyl-propyl)acetamide] |
| 9 nM | CCC(NC(=O)CN1C(=O)N(c2ccc(C)cc2)C2(CCCCC2)C1=O)c1cccc(C(F)(F)F)c1 (stereo not shown) [Compound 17, 2-(2,4-dioxo-1-p-tolyl-1,3-diaza-spiro[4.5]dec-3-yl)-N-[1-(3-trifluoromethyl-phenyl)propyl]-acetamide] |
